According to patent publication US20140336138A1, “COMPOSITIONS AND METHODS FOR SCREENING AND TREATMENT OF STURGE-WEBER SYNDROME, KLIPPEL-TRENAUNAY-WEBER SYNDROME, AND PORT-WINE STAINS (PWSS)” (The Johns Hopkins University, priority 2013, published 2014):

Tests used:
[1] = system: RGS4; settings: cited from earlier work
[2] = system: RGS2; settings: cited from earlier work
[3] = system: phosphorylated-ERK; experiment: Western analysis of phosphorylated-ERK in 293T cells transfected with GNAQ p.R183Q, normalized to tubulin; assay type: cell-based, human; settings: 100 nM digoxin, 42 hours, p=0.0003
Method: 293T cells will be transiently transfected with wildtype, GNAQ, the p.Arg183Gln, or the p.Gln209Leu mutant constructs. Fugene6 (Promega) is used for the 293T transfections (3:1 ratio Fugene6:DNA). The cells are transfected at 60-75% confluency for about an hour.
Levels of phosphorylated-ERK (rabbit monoclonal Phospho-p44/42 MAPK (Erk1/2) Cell Signaling Technology) and phosphorylated-JNK are measured by western analysis and normalized to tubulin. RGS2 and/or RGS4 levels are measured by western analysis and normalized to tubulin. Protein samples are collected from three replicates per cell type and condition. Additionally, similar experiments are performed with the p.Gln209Leu GNAQ mutants as well.

[4] = system: cells transfected with the R183Q mutation; experiment: Cell death / appearance of drug treated R183Q transfected cell cultures; assay type: cell-based, human; settings: 100 nM digoxin

| SMILES | RGS4 protein levels [1] | RGS2 protein levels [2] | p-ERK increase (drug vs vehicle) [3] | cell death in drug treated cell cultures ([4]; 18 hours) | cell death / growth in drug treated cells ([4]; 42 hours) |
| --- | --- | --- | --- | --- | --- |
| C[C@@H]1O[C@@H](O[C@H]2C[C@@H](O)[C@]3(CO)[C@H]4[C@H](O)C[C@]5(C)[C@@H](C6=CC(=O)OC6)CC[C@]5(O)[C@@H]4CC[C@]3(O)C2)[C@H](O)[C@H](O)[C@H]1O [ouabain] | not | increase | – | – | – |
| C[C@H]1O[C@@H](O[C@H]2[C@@H](O)C[C@H](O[C@H]3[C@@H](O)C[C@H](O[C@H]4CC[C@@]5(C)[C@H](CC[C@@H]6[C@@H]5C[C@@H](O)[C@]5(C)[C@@H](C7=CC(=O)OC7)CC[C@]65O)C4)O[C@@H]3C)O[C@@H]2C)C[C@H](O)[C@@H]1O [digoxin] | not | increase | about 3.9 fold | increased cell death | increased cell death/less growth |
